{
  "source": "patent US20100204146A1",
  "about": "“Treatment of Oestrogen Dependant Conditions in Pre-menopausal Women” (PregLem S.A., priority 2007, published 2010)",
  "key": {"[1]": {"test_system": "person with peritoneal and ovarian endometriosis", "experiment": "Endometriosis patient treated with STS-I, then with added progestin", "format": "in vivo, human", "procedure": "A nulliparous person was diagnosed with a moderate/severe peritoneal and ovarian endometriosis during a laparoscopy performed for chronic pelvic pain, dyspareunia and infertility. Despite careful debulking of the lesions during the laparoscopy, the symptoms persisted and medical treatment is indicated. A STS-I, E2MATE is administered at 1.0 mg/week."}, "[2]": {"test_system": "female Cynomolgus monkeys (Macaca fascicularis)", "experiment": "39-week intragastric study in female Cynomolgus monkeys: impact on ovarian cycle and function, microscopic status at necropsy", "conditions": "for Ovary: Absence of corpora lutea (% of animals) / Ovary: Absence of corpora lutea (no. of animals) / Ovary: Cyst (% of animals) / Ovary: Cyst (no. of animals) / Ovary: Increase in growing follicles (% of animals) / Ovary: Increase in growing follicles (no. of animals): 8 animals, after 39 weeks, necropsy; for menstrual cycle pattern: whole treatment period", "protocol": "Three groups of eight female Cynomolgus monkeys (Macaca fascicularis) each were treated intragastrically over a period of approximately 39 weeks at daily doses of 0.2, 0.8 and 2.0 mg/kg of E2MATE using an application volume of 10 mL/kg. A fourth group (control) received an equivalent volume of the vehicle under the same experimental conditions. […] After 39 weeks of treatment, the microscopic status at necropsy was as follows:"}, "[3]": {"biological_target": "T1, sulfatase activity present in eutopic and ectopic endometrium (Homo sapiens, UniProt P08842)", "T1 construct": "abolish the sulfatase activity present in eutopic and ectopic endometrium; host or cells: eutopic and ectopic endometrium (tissue)", "T1 sequence (P08842 22-583)": "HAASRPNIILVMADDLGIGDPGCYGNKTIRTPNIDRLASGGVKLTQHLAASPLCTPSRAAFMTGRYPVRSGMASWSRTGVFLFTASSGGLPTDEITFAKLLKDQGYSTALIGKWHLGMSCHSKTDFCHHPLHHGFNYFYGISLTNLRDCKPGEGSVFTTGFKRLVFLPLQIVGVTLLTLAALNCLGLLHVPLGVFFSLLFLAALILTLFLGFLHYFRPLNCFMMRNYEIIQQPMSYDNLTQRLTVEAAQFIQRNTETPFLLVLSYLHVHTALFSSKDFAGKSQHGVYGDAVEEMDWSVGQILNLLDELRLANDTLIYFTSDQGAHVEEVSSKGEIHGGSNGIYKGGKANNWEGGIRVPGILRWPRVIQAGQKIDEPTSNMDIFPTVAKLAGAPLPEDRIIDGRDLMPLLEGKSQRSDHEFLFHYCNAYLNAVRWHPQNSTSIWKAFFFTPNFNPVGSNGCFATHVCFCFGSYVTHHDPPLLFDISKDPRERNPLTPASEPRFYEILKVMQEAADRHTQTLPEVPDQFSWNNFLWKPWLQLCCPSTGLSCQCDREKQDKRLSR", "conditions": "in vitro; cited from earlier work"}, "metastatic breast cancer": {"test_system": "metastatic breast cancer", "experiment": "Metastatic breast cancer patient treated with STS-I with GnRH agonist maintained", "format": "in vivo, human", "conditions": "daily administration", "procedure": "In a person, a metastatic breast cancer is progressing despite administration of aromatase inhibitor and a GnRH agonist. […] STX64, a STS-I from the coumate family of compound is administered on a daily basis."}, "[4]": {"conditions": "E2MATE 1.0 mg/week associated with norgestrel 0.1 mg/day"}},
  "data": [
    {"smiles": "C[C@]12CC[C@@H]3c4ccc(OS(N)(=O)=O)cc4CC[C@H]3[C@@H]1CC[C@@H]2O", "note": "[E2MATE, Estradiol sulfamate]", "values": [
      {"measurement": "endometriosis symptoms", "setting": "[1]; 1.0 mg/week, alone", "result": "partially relieved"},
      {"measurement": "serum estradiol (E2)", "setting": "[1]; 1.0 mg/week, alone", "result": "fluctuating serum E2 in the hundred of pg range"},
      {"measurement": "vaginal bleeding", "setting": "[1]; 1.0 mg/week, alone", "result": "irregular episodes of mild but painful vaginal bleeding"},
      {"measurement": "patient's symptoms", "setting": "[1]; [4]", "result": "further improvement"},
      {"measurement": "serum estradiol levels and bleeding episode", "setting": "[1]; [4]", "result": "reduction"},
      {"measurement": "animals became amenorrheic", "setting": "[2]; 0.2 mg/kg daily, intragastric, treatment period", "result": "2/8"},
      {"measurement": "Ovary: Absence of corpora lutea (% of animals)", "setting": "[2]; 0.2 mg/kg dose group", "result": "(87.5%)"},
      {"measurement": "Ovary: Absence of corpora lutea (no. of animals)", "setting": "[2]; 0.2 mg/kg dose group", "result": 7},
      {"measurement": "Ovary: Cyst (% of animals)", "setting": "[2]; 0.2 mg/kg dose group", "result": "(12.5%)"},
      {"measurement": "Ovary: Cyst (no. of animals)", "setting": "[2]; 0.2 mg/kg dose group", "result": 1},
      {"measurement": "Ovary: Increase in growing follicles (% of animals)", "setting": "[2]; 0.2 mg/kg dose group", "result": "(50%)"},
      {"measurement": "Ovary: Increase in growing follicles (no. of animals)", "setting": "[2]; 0.2 mg/kg dose group", "result": 4},
      {"measurement": "menstrual cycle pattern", "setting": "[2]; 0.8 mg/kg daily, intragastric", "result": "persistent amenorrhea in most animals"},
      {"measurement": "Ovary: Absence of corpora lutea (% of animals)", "setting": "[2]; 0.8 mg/kg dose group", "result": "(100%)"},
      {"measurement": "Ovary: Absence of corpora lutea (no. of animals)", "setting": "[2]; 0.8 mg/kg dose group", "result": 8},
      {"measurement": "Ovary: Cyst (% of animals)", "setting": "[2]; 0.8 mg/kg dose group", "result": "(12.5%)"},
      {"measurement": "Ovary: Cyst (no. of animals)", "setting": "[2]; 0.8 mg/kg dose group", "result": 1},
      {"measurement": "Ovary: Increase in growing follicles (% of animals)", "setting": "[2]; 0.8 mg/kg dose group", "result": "(12.5%)"},
      {"measurement": "Ovary: Increase in growing follicles (no. of animals)", "setting": "[2]; 0.8 mg/kg dose group", "result": 1},
      {"measurement": "menstrual cycle pattern", "setting": "[2]; 2.0 mg/kg daily, intragastric", "result": "persistent amenorrhea in most animals"},
      {"measurement": "Ovary: Absence of corpora lutea (% of animals)", "setting": "[2]; 4.0 mg/kg dose group", "result": "(100%)"},
      {"measurement": "Ovary: Absence of corpora lutea (no. of animals)", "setting": "[2]; 4.0 mg/kg dose group", "result": 8},
      {"measurement": "Ovary: Cyst (% of animals)", "setting": "[2]; 4.0 mg/kg dose group", "result": "(0%)"},
      {"measurement": "Ovary: Cyst (no. of animals)", "setting": "[2]; 4.0 mg/kg dose group", "result": 0},
      {"measurement": "Ovary: Increase in growing follicles (% of animals)", "setting": "[2]; 4.0 mg/kg dose group", "result": "(50%)"},
      {"measurement": "Ovary: Increase in growing follicles (no. of animals)", "setting": "[2]; 4.0 mg/kg dose group", "result": 4}
    ]},
    {"smiles": "NS(=O)(=O)Oc1ccc2c3c(c(=O)oc2c1)CCCCC3", "note": "[STX64]", "values": [
      {"measurement": "sulfatase activity in eutopic and ectopic endometrium", "setting": "[3]", "result": "abolish"},
      {"measurement": "follicular development", "setting": "metastatic breast cancer", "result": "no follicular development is recorded"}
    ]}
  ]
}
